Data: ChEMBL document CHEMBL3991601, “The target landscape of clinical kinase drugs” (Science, 2017)
pKd: −log10 of the molar value. Calls of active or inactive are those of the source. For most assays here, no stated cut-off is given here; in the data, actives have a measured Kd and inactives only a lower limit.

How the values were obtained:
[1] = target: T1, Serine/threonine-protein kinase STK11 (Homo sapiens, UniProt Q15831)
T1 sequence (Q15831 whole entry): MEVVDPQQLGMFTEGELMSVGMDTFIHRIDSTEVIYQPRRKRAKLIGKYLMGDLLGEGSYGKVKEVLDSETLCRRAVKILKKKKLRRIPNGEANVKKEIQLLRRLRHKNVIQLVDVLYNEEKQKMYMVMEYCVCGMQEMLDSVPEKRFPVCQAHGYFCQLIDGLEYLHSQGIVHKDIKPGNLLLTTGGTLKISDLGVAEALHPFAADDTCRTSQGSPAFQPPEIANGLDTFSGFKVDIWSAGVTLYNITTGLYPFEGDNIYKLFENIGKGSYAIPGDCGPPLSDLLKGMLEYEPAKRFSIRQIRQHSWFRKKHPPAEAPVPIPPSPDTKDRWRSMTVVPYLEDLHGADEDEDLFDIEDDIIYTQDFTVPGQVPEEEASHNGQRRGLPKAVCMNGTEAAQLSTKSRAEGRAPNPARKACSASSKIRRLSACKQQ

[2] = target: Putative heat shock protein HSP 90-beta 2 (Homo sapiens, UniProt Q58FF8)
[3] = target: Interleukin-1 receptor-associated kinase 1 (Homo sapiens, UniProt P51617)
Interleukin-1 receptor-associated kinase 1, sequence (P51617 whole entry): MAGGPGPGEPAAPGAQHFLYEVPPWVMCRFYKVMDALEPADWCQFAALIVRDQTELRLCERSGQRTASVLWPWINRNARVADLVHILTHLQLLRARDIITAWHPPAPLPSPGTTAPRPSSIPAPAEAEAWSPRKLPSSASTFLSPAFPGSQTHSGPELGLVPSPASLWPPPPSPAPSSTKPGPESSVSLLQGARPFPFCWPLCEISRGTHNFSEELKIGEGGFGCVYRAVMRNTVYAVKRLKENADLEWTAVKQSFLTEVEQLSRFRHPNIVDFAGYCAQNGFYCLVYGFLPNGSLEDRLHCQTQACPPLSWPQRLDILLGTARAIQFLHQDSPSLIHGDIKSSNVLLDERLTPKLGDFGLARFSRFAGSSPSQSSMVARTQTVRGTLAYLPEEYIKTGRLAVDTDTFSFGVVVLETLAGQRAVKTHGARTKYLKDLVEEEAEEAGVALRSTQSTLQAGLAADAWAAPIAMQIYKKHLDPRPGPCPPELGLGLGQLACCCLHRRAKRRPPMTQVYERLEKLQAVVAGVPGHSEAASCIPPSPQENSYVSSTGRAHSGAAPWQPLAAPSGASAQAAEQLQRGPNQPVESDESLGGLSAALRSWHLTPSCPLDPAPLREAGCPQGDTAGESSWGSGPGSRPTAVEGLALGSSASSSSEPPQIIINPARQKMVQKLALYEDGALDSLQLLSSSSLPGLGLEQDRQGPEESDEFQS

Ephrin type-A receptor 2 = Ephrin type-A receptor 2 (Homo sapiens, UniProt P29317)
Ephrin type-A receptor 2, sequence (P29317 whole entry): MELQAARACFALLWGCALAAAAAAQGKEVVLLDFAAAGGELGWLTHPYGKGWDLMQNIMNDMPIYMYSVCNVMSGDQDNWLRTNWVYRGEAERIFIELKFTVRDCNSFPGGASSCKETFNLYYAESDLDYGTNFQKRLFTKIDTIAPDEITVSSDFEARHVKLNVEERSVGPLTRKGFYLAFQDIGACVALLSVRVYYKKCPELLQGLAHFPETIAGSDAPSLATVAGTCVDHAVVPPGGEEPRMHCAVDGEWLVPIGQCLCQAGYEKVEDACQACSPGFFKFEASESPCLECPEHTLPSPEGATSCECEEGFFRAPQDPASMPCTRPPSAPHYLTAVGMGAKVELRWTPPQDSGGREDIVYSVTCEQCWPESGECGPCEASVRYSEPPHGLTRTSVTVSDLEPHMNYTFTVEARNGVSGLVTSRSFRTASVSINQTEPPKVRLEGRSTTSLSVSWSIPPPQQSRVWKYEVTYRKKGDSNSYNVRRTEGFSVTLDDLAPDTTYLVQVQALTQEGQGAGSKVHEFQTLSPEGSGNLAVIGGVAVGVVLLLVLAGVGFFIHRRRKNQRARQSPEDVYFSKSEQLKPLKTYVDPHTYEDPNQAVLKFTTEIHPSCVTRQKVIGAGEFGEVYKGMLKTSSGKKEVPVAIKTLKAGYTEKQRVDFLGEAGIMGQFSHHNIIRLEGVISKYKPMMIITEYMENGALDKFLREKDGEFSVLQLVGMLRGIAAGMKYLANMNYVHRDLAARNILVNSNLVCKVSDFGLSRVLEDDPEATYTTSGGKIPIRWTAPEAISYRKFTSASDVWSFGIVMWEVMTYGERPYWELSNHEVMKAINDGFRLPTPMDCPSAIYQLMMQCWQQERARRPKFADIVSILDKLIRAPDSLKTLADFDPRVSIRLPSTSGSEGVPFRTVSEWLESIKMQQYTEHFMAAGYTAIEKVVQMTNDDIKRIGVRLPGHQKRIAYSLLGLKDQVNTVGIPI

[4] = target: Serine/threonine-protein kinase N1 (Homo sapiens, UniProt Q16512)
Serine/threonine-protein kinase N1, sequence (Q16512 whole entry): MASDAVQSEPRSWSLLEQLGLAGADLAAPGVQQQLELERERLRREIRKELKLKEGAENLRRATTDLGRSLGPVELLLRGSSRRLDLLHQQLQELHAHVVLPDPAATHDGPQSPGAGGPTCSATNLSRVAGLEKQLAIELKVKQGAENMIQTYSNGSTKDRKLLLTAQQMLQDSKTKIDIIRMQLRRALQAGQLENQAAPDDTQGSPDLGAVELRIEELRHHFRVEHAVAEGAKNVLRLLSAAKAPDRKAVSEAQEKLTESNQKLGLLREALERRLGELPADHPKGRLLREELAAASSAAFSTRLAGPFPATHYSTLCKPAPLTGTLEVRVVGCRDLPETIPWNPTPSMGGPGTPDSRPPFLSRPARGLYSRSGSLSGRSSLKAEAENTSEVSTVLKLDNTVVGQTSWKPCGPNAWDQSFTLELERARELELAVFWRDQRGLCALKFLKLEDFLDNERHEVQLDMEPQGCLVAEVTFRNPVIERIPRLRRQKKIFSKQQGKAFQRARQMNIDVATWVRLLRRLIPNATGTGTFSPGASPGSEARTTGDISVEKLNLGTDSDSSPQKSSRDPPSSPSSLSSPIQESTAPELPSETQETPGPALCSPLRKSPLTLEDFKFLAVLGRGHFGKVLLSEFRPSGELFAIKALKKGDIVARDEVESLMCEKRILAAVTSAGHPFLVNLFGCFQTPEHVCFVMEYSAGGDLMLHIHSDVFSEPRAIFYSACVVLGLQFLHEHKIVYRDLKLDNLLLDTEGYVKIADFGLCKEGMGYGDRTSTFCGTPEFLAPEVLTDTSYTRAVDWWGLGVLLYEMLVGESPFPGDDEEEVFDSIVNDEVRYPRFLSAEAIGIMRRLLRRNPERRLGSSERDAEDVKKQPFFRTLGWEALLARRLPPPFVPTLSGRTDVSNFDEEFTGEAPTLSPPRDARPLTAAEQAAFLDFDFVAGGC

[5] = target: Protein-tyrosine kinase 2-beta (Homo sapiens, UniProt Q14289)
[6] = target: Structural maintenance of chromosomes protein 2 (Homo sapiens, UniProt O95347)
[7] = target: Serine/threonine-protein kinase 26 (Homo sapiens, UniProt Q9P289)
Serine/threonine-protein kinase 26, sequence (Q9P289 whole entry): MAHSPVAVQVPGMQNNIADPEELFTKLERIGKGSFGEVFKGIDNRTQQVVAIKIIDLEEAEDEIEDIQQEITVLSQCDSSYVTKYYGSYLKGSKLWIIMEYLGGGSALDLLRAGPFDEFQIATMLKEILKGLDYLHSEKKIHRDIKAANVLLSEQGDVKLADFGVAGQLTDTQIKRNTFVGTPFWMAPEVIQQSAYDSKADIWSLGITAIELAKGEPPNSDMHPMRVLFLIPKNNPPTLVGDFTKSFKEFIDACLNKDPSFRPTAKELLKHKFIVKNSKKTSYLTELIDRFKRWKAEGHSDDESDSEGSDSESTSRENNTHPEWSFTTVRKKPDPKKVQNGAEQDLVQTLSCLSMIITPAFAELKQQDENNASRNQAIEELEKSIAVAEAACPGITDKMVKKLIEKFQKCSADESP

[8] = target: T2, Dual specificity mitogen-activated protein kinase kinase 6 (Homo sapiens, UniProt P52564)
T2 sequence (P52564 whole entry): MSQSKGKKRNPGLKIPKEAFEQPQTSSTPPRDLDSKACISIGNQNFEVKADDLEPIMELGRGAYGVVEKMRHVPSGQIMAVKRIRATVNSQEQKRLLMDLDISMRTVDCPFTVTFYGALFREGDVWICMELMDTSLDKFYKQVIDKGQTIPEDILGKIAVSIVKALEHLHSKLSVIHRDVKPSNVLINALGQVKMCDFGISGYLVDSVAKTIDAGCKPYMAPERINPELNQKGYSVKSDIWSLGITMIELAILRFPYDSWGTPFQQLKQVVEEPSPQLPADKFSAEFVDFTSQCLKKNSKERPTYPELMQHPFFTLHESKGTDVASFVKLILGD

Ephrin type-B receptor 4 = target: T3, Ephrin type-B receptor 4 (Homo sapiens, UniProt P54760)
T3 sequence (P54760 whole entry): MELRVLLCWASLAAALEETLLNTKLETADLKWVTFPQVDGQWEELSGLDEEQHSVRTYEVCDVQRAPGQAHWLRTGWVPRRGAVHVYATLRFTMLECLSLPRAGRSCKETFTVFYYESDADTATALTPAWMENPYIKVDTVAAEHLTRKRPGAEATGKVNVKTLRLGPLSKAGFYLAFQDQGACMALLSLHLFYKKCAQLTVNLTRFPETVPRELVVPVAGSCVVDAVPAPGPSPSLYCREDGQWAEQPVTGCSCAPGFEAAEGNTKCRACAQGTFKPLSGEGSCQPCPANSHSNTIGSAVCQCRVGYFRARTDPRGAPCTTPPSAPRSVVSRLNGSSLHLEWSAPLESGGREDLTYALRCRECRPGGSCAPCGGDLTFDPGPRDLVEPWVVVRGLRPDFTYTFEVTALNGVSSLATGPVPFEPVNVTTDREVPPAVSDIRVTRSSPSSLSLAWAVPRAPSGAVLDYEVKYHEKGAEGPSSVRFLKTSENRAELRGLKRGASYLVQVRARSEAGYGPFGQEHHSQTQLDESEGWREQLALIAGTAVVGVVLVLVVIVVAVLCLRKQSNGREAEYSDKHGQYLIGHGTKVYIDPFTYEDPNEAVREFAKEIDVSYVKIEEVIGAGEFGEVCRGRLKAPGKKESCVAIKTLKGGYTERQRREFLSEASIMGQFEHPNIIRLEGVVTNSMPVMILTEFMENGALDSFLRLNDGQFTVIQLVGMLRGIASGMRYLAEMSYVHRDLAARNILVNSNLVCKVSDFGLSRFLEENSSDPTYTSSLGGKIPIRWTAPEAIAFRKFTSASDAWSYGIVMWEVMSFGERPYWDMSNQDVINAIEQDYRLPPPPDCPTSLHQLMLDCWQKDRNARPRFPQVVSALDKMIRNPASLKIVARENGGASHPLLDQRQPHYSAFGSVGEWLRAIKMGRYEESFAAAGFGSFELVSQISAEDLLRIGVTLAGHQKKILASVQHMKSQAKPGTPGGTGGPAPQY

[9] = target: T4, Interleukin-1 receptor-associated kinase 3 (Homo sapiens, UniProt Q9Y616)
T4 sequence (Q9Y616 whole entry): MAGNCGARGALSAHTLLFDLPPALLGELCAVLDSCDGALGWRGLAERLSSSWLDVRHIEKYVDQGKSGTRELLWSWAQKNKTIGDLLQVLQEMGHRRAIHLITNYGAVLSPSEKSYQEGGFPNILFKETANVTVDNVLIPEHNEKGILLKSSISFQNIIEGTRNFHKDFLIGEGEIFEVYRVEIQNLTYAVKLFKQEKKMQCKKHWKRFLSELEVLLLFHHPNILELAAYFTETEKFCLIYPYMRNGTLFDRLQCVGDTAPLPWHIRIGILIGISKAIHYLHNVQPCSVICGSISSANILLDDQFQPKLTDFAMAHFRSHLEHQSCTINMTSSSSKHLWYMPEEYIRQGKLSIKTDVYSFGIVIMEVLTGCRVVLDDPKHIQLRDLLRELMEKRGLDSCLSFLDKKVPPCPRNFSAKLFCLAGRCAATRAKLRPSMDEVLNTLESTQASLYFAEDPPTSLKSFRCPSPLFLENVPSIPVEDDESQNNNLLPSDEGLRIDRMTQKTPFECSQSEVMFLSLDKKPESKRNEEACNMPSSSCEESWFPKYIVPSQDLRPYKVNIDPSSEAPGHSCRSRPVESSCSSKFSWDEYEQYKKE

[10] = target: Tyrosine-protein kinase ABL2 (Homo sapiens, UniProt P42684)
[11] = target: Cyclin-dependent kinase 13 (Homo sapiens, UniProt Q14004)
Cyclin-dependent kinase 13, sequence (Q14004 whole entry): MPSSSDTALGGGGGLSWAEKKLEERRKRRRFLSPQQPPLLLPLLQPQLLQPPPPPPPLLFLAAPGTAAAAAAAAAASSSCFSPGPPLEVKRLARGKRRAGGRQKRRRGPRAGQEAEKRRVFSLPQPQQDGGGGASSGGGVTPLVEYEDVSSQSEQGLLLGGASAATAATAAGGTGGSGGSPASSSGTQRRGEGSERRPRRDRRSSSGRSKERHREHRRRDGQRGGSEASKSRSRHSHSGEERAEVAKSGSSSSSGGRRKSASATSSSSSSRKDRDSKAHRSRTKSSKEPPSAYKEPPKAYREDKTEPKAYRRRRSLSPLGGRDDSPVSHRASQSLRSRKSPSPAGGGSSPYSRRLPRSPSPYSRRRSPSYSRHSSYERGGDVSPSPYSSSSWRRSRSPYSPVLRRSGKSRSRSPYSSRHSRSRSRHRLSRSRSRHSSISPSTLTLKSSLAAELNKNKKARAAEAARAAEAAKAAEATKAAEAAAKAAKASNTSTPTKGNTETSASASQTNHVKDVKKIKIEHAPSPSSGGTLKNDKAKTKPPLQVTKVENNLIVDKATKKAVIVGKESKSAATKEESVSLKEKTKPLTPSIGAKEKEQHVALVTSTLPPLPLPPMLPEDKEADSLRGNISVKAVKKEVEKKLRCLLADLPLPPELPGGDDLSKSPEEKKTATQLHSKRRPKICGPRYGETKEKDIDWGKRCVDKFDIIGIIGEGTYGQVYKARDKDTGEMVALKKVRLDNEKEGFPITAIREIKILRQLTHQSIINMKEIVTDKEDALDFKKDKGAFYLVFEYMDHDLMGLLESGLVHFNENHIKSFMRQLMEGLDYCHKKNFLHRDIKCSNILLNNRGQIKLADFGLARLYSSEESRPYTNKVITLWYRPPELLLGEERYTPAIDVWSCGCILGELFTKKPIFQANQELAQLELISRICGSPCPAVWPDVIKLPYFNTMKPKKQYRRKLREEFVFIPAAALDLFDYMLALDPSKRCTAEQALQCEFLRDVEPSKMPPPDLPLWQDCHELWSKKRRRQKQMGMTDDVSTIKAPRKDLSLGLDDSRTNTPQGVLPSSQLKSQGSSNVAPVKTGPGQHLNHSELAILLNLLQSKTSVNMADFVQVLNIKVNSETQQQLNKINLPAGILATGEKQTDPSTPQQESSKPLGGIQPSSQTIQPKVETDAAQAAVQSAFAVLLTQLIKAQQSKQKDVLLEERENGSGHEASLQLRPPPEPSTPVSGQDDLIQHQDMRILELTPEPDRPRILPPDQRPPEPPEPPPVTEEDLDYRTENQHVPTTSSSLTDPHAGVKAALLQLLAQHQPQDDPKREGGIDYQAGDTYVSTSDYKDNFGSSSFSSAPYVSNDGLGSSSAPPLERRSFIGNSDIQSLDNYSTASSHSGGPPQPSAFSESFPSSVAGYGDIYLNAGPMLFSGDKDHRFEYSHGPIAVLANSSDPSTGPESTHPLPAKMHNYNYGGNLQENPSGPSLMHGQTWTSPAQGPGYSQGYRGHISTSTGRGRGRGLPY

[12] = target: Ras-related protein Rab-6A (Homo sapiens, UniProt P20340)
Ras-related protein Rab-6A, sequence (P20340 whole entry): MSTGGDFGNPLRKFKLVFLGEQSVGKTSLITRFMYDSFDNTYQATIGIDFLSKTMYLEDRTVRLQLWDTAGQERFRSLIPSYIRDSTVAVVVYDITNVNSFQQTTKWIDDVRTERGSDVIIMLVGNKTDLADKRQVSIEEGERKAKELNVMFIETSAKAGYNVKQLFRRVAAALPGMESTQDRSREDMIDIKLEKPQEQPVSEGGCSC

Compound | Kd [1] | Kd [2] | Kd [3] | Kd (Ephrin type-A receptor 2) | Kd [4] | Kd [5] | Kd [6] | Kd [7] | Kd [8] | Kd (Ephrin type-B receptor 4) | Kd [9] | Kd [10] | Kd [11] | Kd [12] | pKd [1] | pKd [12]
COc1ccc2c(OCc3nnc4ccc(-c5ccccc5)nn34)ccnc2c1 [AMG-208] | > 30 µM (inactive) | > 30 µM (inactive) | > 30 µM (inactive) | > 30 µM (inactive) | > 30 µM (inactive) | > 30 µM (inactive) | > 30 µM (inactive) | > 30 µM (inactive) | > 30 µM (inactive) | > 30 µM (inactive) | > 30 µM (inactive) | > 30 µM (inactive) | > 30 µM (inactive) | > 30 µM (inactive) |  | 
Cc1cc(Nc2nc(N[C@@H](C)c3ncc(F)cn3)ncc2Cl)n[nH]1 [AZD-1480] |  | > 30 µM (inactive) | > 30 µM (inactive) | > 30 µM (inactive) | > 30 µM (inactive) | 1.88 µM (active) | > 30 µM (inactive) | > 30 µM (inactive) | > 30 µM (inactive) | > 30 µM (inactive) | > 30 µM (inactive) | > 30 µM (inactive) | > 30 µM (inactive) | > 30 µM (inactive) | 6.15 | 
CCN(CCCOc1ccc2c(Nc3cc(CC(=O)Nc4cccc(F)c4)n[nH]3)ncnc2c1)CCOP(=O)(O)O [BARASERTIB] | > 30 µM (inactive) | > 30 µM (inactive) | > 30 µM (inactive) | > 30 µM (inactive) | > 30 µM (inactive) | > 30 µM (inactive) | > 30 µM (inactive) | > 30 µM (inactive) | > 30 µM (inactive) | > 30 µM (inactive) | > 30 µM (inactive) | > 30 µM (inactive) | > 30 µM (inactive) |  |  | 7.48
COc1cc2nccc(Oc3ccc(NC(=O)C4(C(=O)Nc5ccc(F)cc5)CC4)cc3)c2cc1OC [CABOZANTINIB] | > 30 µM (inactive) | > 30 µM (inactive) | > 30 µM (inactive) | 0.746 µM (active) | > 30 µM (inactive) | > 30 µM (inactive) | > 30 µM (inactive) | > 30 µM (inactive) | > 30 µM (inactive) | > 30 µM (inactive) | > 30 µM (inactive) | 0.918 µM (active) | > 30 µM (inactive) | > 30 µM (inactive) |  | 
c1cc(OCCN2CCCCC2)cc(-c2n[nH]c3ccc(-c4nc[nH]n4)cc23)c1 [CC-401] | > 30 µM (inactive) | > 30 µM (inactive) | > 30 µM (inactive) | > 30 µM (inactive) | > 30 µM (inactive) | > 30 µM (inactive) | > 30 µM (inactive) | > 30 µM (inactive) | > 30 µM (inactive) | > 30 µM (inactive) | > 30 µM (inactive) | > 30 µM (inactive) | > 30 µM (inactive) | > 30 µM (inactive) |  | 
COc1cc2ncnc(Nc3ccc(F)c(Cl)c3)c2cc1NC(=O)/C=C/CN1CCCCC1 [DACOMITINIB ANHYDROUS] | > 30 µM (inactive) | > 30 µM (inactive) | > 30 µM (inactive) | > 30 µM (inactive) | > 30 µM (inactive) | > 30 µM (inactive) | > 30 µM (inactive) | > 30 µM (inactive) | > 30 µM (inactive) | > 30 µM (inactive) | > 30 µM (inactive) | > 30 µM (inactive) | > 30 µM (inactive) | > 30 µM (inactive) |  | 
CC[C@@](C)(Nc1ccnc(-c2c[nH]c3ncccc23)n1)C(=O)NCC(F)(F)F [DECERNOTINIB] | > 30 µM (inactive) | > 30 µM (inactive) | > 30 µM (inactive) | > 30 µM (inactive) | 49.8 µM (active) | > 30 µM (inactive) | > 30 µM (inactive) | 1.14 µM (active) | > 30 µM (inactive) | > 30 µM (inactive) | > 30 µM (inactive) | 7.07 µM (active) | > 30 µM (inactive) | > 30 µM (inactive) |  | 
CNC(=O)c1ccc(Nc2ncc(C(F)(F)F)c(NCc3nccnc3N(C)S(C)(=O)=O)n2)cc1 [DEFACTINIB] | > 30 µM (inactive) | > 30 µM (inactive) | > 30 µM (inactive) | > 30 µM (inactive) | > 30 µM (inactive) | 0.423 µM (active) | > 30 µM (inactive) | > 30 µM (inactive) | > 30 µM (inactive) | > 30 µM (inactive) | > 30 µM (inactive) | > 30 µM (inactive) | 3.11 µM (active) | > 30 µM (inactive) |  | 
COc1cc(Nc2ncc(F)c(Nc3ccc4c(n3)N(COP(=O)(O)O)C(=O)C(C)(C)O4)n2)cc(OC)c1OC [FOSTAMATINIB] | > 30 µM (inactive) | > 30 µM (inactive) | > 30 µM (inactive) | > 30 µM (inactive) | > 30 µM (inactive) | > 30 µM (inactive) | > 30 µM (inactive) | > 30 µM (inactive) | > 30 µM (inactive) | > 30 µM (inactive) | 1.29 µM (active) | > 30 µM (inactive) | > 30 µM (inactive) | > 30 µM (inactive) |  | 
Cc1c(Cn2c(C)nc3c(C(=O)O)cc(N4CCOCC4)cc32)cccc1C(F)(F)F [GSK-2636771] | > 30 µM (inactive) | > 30 µM (inactive) | > 30 µM (inactive) | > 30 µM (inactive) | > 30 µM (inactive) | > 30 µM (inactive) | > 30 µM (inactive) | > 30 µM (inactive) | > 30 µM (inactive) | > 30 µM (inactive) | > 30 µM (inactive) | > 30 µM (inactive) | > 30 µM (inactive) | > 30 µM (inactive) |  | 
